{
  "source": "paper PMC10794144",
  "about": "“A novel antibiotic class targeting the lipopolysaccharide transporter” (Nature, 2024)",
  "key": {"P. aeruginosa ATCC 27853": {"system": "P. aeruginosa ATCC 27853", "test": "microbe, parasite or virus in culture", "settings": "for MIC: Pseudomonas aeruginosa; for RO7223280 MIC 100%: P. aeruginosa ATCC 27853, read at 100%", "description": "MIC determinations were performed using the broth microdilution method and in line with CLSI guidelines M07 and M100 (refs. [37],[38]). Bacterial inocula were prepared by diluting a 0.5 McFarland suspension in CAMHB or lysogeny broth (LB) specifically for A. baylyi isolates. […] MIC values of all of the tested antibiotics were read as the lowest compound concentration inhibiting bacterial growth by naked eye or beyond which the OD600 ceased to decrease."}, "[1]": {"system": "Nicotinic receptor, muscle", "test": "Off-target screening (CEREP)", "assay_type": "binding, human", "settings": "10 µM, duplicates", "description": "(§1) Supplementary Table 1 │ Off-target activity screening f or MCP compou nds […]\n(§2) The assays given in the table above were conducted at Eurofins CEREP S A (Celle-Lévescault, France) and were run as single point measurements in duplicates in the presence of 10 µ M of the test compound and reported as percent inhibition of the radioligand signal or control enzymatic activity. n.d., not"}, "[2]": {"system": "Nicotinic receptor, neuronal", "test": "Off-target screening (CEREP)", "assay_type": "binding, human", "settings": "10 µM, duplicates", "description": "as §1, §2"}, "[3]": {"settings": "ATCC27853, CAMHB, mode of at least three replicates (RO7036668 one replicate)"}},
  "note": "Where two headings read alike, the source gives them in different places.",
  "data": [
    {"smiles": "CN1C(=O)[C@H](CCCN)NC(=O)[C@H](CCCN)NCc2ccccc2Sc2ccccc2CNC(=O)[C@@H]1Cc1c[nH]c2ccccc12", "note": "[RO7036668]", "values": [
      {"measurement": "MIC", "setting": "P. aeruginosa ATCC 27853; [3]", "value": "> 64", "unit": "µg/mL"}
    ]},
    {"smiles": "CN1C(=O)[C@H](CCCCN)NC(=O)[C@H](CCCN)NCc2cccnc2Sc2cccc(-c3ccc(C(=O)O)cc3)c2CNC(=O)[C@@H]1Cc1c[nH]c2ccccc12", "note": "[zosurabalpin]", "values": [
      {"measurement": "RO7223280 MIC 100%", "setting": "P. aeruginosa ATCC 27853; Study LGC296813", "value": ">64", "unit": "µg/mL"},
      {"measurement": "RO7223280 MIC 100%", "setting": "P. aeruginosa ATCC 27853; Study LGC299544", "value": ">64", "unit": "µg/mL"},
      {"measurement": "RO7223280 MIC 100%", "setting": "P. aeruginosa ATCC 27853; Study LGC308175", "value": ">64", "unit": "µg/mL"},
      {"measurement": "MIC", "setting": "P. aeruginosa ATCC 27853; ATCC27853", "value": "> 64", "unit": "µg/mL"},
      {"measurement": "percent inhibition", "setting": "[1]", "value": -16, "unit": "%"},
      {"measurement": "percent inhibition", "setting": "[2]", "value": -11, "unit": "%"}
    ]},
    {"smiles": "CN1C(=O)[C@H](CCCCN)NC(=O)[C@H](CCCN)NCc2cccnc2Sc2c(Cl)ccc(Cl)c2CNC(=O)[C@@H]1Cc1c[nH]c2ccccc12", "note": "[RO7075573]", "values": [
      {"measurement": "MIC", "setting": "P. aeruginosa ATCC 27853; ATCC27853", "value": "> 64", "unit": "µg/mL"},
      {"measurement": "MIC 100%", "setting": "P. aeruginosa ATCC 27853; Study LGC281440, 100%", "value": 64, "unit": "µg/mL"},
      {"measurement": "MIC 100%", "setting": "P. aeruginosa ATCC 27853; Study LGC282160, 100%", "value": ">64", "unit": "µg/mL"},
      {"measurement": "MIC 100%", "setting": "P. aeruginosa ATCC 27853; Study LGC284879, 100%", "value": ">64", "unit": "µg/mL"},
      {"measurement": "MIC 100%", "setting": "P. aeruginosa ATCC 27853; Study LGC285582, 100%", "value": ">64", "unit": "µg/mL"},
      {"measurement": "MIC 100%", "setting": "P. aeruginosa ATCC 27853; Study LGC286210, 100%", "value": 64, "unit": "µg/mL"},
      {"measurement": "MIC 100%", "setting": "P. aeruginosa ATCC 27853; Study LGC293598, 100%", "value": ">64", "unit": "µg/mL"},
      {"measurement": "MIC 100%", "setting": "P. aeruginosa ATCC 27853; Study LGC294355, 100%", "value": ">64", "unit": "µg/mL"},
      {"measurement": "MIC 100%", "setting": "P. aeruginosa ATCC 27853; Study LGC295147, 100%", "value": 64, "unit": "µg/mL"},
      {"measurement": "MIC 100%", "setting": "P. aeruginosa ATCC 27853; Study LGC296813, 100%", "value": 64, "unit": "µg/mL"},
      {"measurement": "MIC 100%", "setting": "P. aeruginosa ATCC 27853; Study LGC299544, 100%", "value": ">64", "unit": "µg/mL"},
      {"measurement": "MIC 100%", "setting": "P. aeruginosa ATCC 27853; Study LGC301026, 100%", "value": ">64", "unit": "µg/mL"},
      {"measurement": "MIC 100%", "setting": "P. aeruginosa ATCC 27853; Study LGC308175, 100%", "value": ">64", "unit": "µg/mL"},
      {"measurement": "MIC 100%", "setting": "P. aeruginosa ATCC 27853; Study ROC010, 100%", "value": ">64", "unit": "µg/mL"},
      {"measurement": "MIC 100%", "setting": "P. aeruginosa ATCC 27853; Study ROC012, 100%", "value": ">64", "unit": "µg/mL"},
      {"measurement": "percent inhibition", "setting": "[1]", "value": 5, "unit": "%"},
      {"measurement": "percent inhibition", "setting": "[2]", "value": -7, "unit": "%"}
    ]},
    {"smiles": "C[C@@H](O)[C@H]1C(=O)N2C(C(=O)O)=C(S[C@@H]3CN[C@H](C(=O)N(C)C)C3)[C@H](C)[C@H]12", "note": "[meropenem, reference compound]", "values": [
      {"measurement": "MIC", "setting": "P. aeruginosa ATCC 27853; [3]", "value": 0.5, "unit": "µg/mL"},
      {"measurement": "MIC", "setting": "P. aeruginosa ATCC 27853; ATCC27853, read-out: MIC 100%, Study LGC277937, 100%", "value": 0.5, "unit": "µg/mL"},
      {"measurement": "MIC", "setting": "P. aeruginosa ATCC 27853; ATCC27853, read-out: MIC 100%, Study LGC279800, 100%", "value": 0.25, "unit": "µg/mL"},
      {"measurement": "MIC", "setting": "P. aeruginosa ATCC 27853; ATCC27853, read-out: MIC 100%, Study LGC281440, 100%", "value": 0.25, "unit": "µg/mL"},
      {"measurement": "MIC", "setting": "P. aeruginosa ATCC 27853; ATCC27853, read-out: MIC 100%, Study LGC282160, 100%", "value": 0.5, "unit": "µg/mL"},
      {"measurement": "MIC", "setting": "P. aeruginosa ATCC 27853; ATCC27853, read-out: MIC 100%, Study LGC282623, 100%", "value": 0.5, "unit": "µg/mL"},
      {"measurement": "MIC", "setting": "P. aeruginosa ATCC 27853; ATCC27853, read-out: MIC 100%, Study LGC283932, 100%", "value": 0.5, "unit": "µg/mL"},
      {"measurement": "MIC", "setting": "P. aeruginosa ATCC 27853; ATCC27853, read-out: MIC 100%, Study LGC284200, 100%", "value": 0.5, "unit": "µg/mL"},
      {"measurement": "MIC", "setting": "P. aeruginosa ATCC 27853; ATCC27853, read-out: MIC 100%, Study LGC284879, 100%", "value": 0.5, "unit": "µg/mL"},
      {"measurement": "MIC", "setting": "P. aeruginosa ATCC 27853; ATCC27853, read-out: MIC 100%, Study LGC285582, 100%", "value": 0.25, "unit": "µg/mL"},
      {"measurement": "MIC", "setting": "P. aeruginosa ATCC 27853; ATCC27853, read-out: MIC 100%, Study LGC286210, 100%", "value": 0.5, "unit": "µg/mL"},
      {"measurement": "MIC", "setting": "P. aeruginosa ATCC 27853; ATCC27853, read-out: MIC 100%, Study LGC293598, 100%", "value": 0.5, "unit": "µg/mL"},
      {"measurement": "MIC", "setting": "P. aeruginosa ATCC 27853; ATCC27853, read-out: MIC 100%, Study LGC294355, 100%", "value": 0.5, "unit": "µg/mL"},
      {"measurement": "MIC", "setting": "P. aeruginosa ATCC 27853; ATCC27853, read-out: MIC 100%, Study LGC295147, 100%", "value": 0.5, "unit": "µg/mL"},
      {"measurement": "MIC", "setting": "P. aeruginosa ATCC 27853; ATCC27853, read-out: MIC 100%, Study LGC296813, 100%", "value": 0.5, "unit": "µg/mL"},
      {"measurement": "MIC", "setting": "P. aeruginosa ATCC 27853; ATCC27853, read-out: MIC 100%, Study LGC299544, 100%", "value": 0.5, "unit": "µg/mL"},
      {"measurement": "MIC", "setting": "P. aeruginosa ATCC 27853; ATCC27853, read-out: MIC 100%, Study LGC301026, 100%", "value": 0.25, "unit": "µg/mL"},
      {"measurement": "MIC", "setting": "P. aeruginosa ATCC 27853; ATCC27853, read-out: MIC 100%, Study LGC308175, 100%", "value": 0.25, "unit": "µg/mL"},
      {"measurement": "MIC", "setting": "P. aeruginosa ATCC 27853; ATCC27853, read-out: MIC 100%, Study ROC003, 100%", "value": 0.5, "unit": "µg/mL"},
      {"measurement": "MIC", "setting": "P. aeruginosa ATCC 27853; ATCC27853, read-out: MIC 100%, Study ROC004, 100%", "value": 0.5, "unit": "µg/mL"},
      {"measurement": "MIC", "setting": "P. aeruginosa ATCC 27853; ATCC27853, read-out: MIC 100%, Study ROC005, 100%", "value": 0.5, "unit": "µg/mL"},
      {"measurement": "MIC", "setting": "P. aeruginosa ATCC 27853; ATCC27853, read-out: MIC 100%, Study ROC006, 100%", "value": 0.5, "unit": "µg/mL"},
      {"measurement": "MIC", "setting": "P. aeruginosa ATCC 27853; ATCC27853, read-out: MIC 100%, Study ROC007, 100%", "value": 0.5, "unit": "µg/mL"},
      {"measurement": "MIC", "setting": "P. aeruginosa ATCC 27853; ATCC27853, read-out: MIC 100%, Study ROC008, 100%", "value": 2, "unit": "µg/mL"},
      {"measurement": "MIC", "setting": "P. aeruginosa ATCC 27853; ATCC27853, read-out: MIC 100%, Study ROC009, 100%", "value": 0.25, "unit": "µg/mL"},
      {"measurement": "MIC", "setting": "P. aeruginosa ATCC 27853; ATCC27853, read-out: MIC 100%, Study ROC010, 100%", "value": 0.5, "unit": "µg/mL"},
      {"measurement": "MIC", "setting": "P. aeruginosa ATCC 27853; ATCC27853, read-out: MIC 100%, Study ROC012, 100%", "value": 0.12, "unit": "µg/mL"},
      {"measurement": "MIC", "setting": "P. aeruginosa ATCC 27853; ATCC27853, read-out: MIC 100%, Study ROC013, 100%", "value": 0.5, "unit": "µg/mL"}
    ]},
    {"smiles": "CN1C(=O)[C@H](CCCCN)NC(=O)[C@H](CCCN)NCc2cccnc2Sc2c(Cl)ccc(-c3ccc(C(=O)O)cc3)c2CNC(=O)[C@@H]1Cc1c[nH]c2ccccc12", "note": "[RO7202110]", "values": [
      {"measurement": "MIC", "setting": "P. aeruginosa ATCC 27853; [3]", "value": "> 64", "unit": "µg/mL"},
      {"measurement": "percent inhibition", "setting": "[1]", "value": 11, "unit": "%"},
      {"measurement": "percent inhibition", "setting": "[2]", "value": 4, "unit": "%"}
    ]}
  ]
}
